Experimental data as given in patent US20240109918A1, “HETEROCYCLIC COMPOUNDS AND USES THEREOF” (Kumquat Biosciences Inc., priority 2022, published 2024).

Assays:
KRASG12D = target: T1, KRASG12D (Homo sapiens, UniProt P01116, G12D); experiment: Bio-Biochem-PPI-HTRF Ras-SOS1 interaction assay (KRAS G12D); assay type: biochemical; conditions: 5 nM
T1 construct: made in house; host or cells: E. coli BL21 (DE3)
Outline: (§1)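 HTRF measurement of GST-K-Ras (wt or G12D) binding to His-hSOS1, via anti-GST-Eu(K) donor and anti-6His-XL665 acceptor, in HEPES pH 7.4 buffer with NaCl, DTT, BSA and Igepal. Read after ≥10 min; compounds in duplicate from 10 μM down to 0.01 μM. IC50 from 665/620 nm ratio.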

KRASwt = target: T2, KRASwt (Homo sapiens, UniProt P01116); experiment: Bio-Biochem-PPI-HTRF Ras-SOS1 interaction assay (KRAS wt); assay type: biochemical; conditions: 5 nM
T2 construct: made in house; host or cells: E. coli BL21 (DE3)
T2 sequence (P01116 1-188 isoform P01116-2): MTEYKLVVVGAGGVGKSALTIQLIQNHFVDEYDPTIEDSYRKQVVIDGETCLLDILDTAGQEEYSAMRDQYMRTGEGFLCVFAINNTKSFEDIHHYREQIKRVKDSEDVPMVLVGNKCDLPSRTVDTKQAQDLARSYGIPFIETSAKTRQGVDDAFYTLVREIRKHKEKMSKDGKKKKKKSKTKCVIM
Outline: as §1

T1 sequence (P01116 1-188 isoform P01116-2 G12D): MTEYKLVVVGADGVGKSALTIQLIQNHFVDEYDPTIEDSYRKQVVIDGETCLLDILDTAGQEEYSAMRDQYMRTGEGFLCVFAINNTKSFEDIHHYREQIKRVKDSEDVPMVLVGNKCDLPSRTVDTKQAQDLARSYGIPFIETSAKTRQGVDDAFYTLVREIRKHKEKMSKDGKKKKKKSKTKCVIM

| IC50 (KRASG12D) [µM] | IC50 (KRASwt) [µM] | Compound |
| --- | --- | --- |
| < 5 | < 5 | N#Cc1c(N)sc2c(F)ccc(-c3c(Cl)cc4c(N5CCCCC6(CN(C(=O)[C@]78COC[C@H]7C8(F)F)C6)C5)nc(OC[C@@]56CCCN5C[C@H](F)C6)nc4c3F)c12 [compound 240, 2-amino-4-(6-chloro-4-(2-((1R,5S)-6,6-difluoro-3-oxabicyclo[3.1.0]hexane-1-carbonyl)-2,6-diazaspiro[3.6]decan-6-yl)-8-fluoro-2-(((2R,7aS)-2-fluorotetrahydro-1H-pyrrolizin-7a(5H)-yl)methoxy)quinazolin-7-yl)-7-fluorobenzo[b]thiophene-3-carbonitrile] |
| < 5 | < 5 | N#Cc1c(N)sc2c(F)ccc(-c3c(Cl)cc4c(N5CCC(F)(F)CC6(CN(C(=O)[C@@H]7CC7(F)F)C6)C5)nc(OC[C@@]56CCCN5C[C@H](F)C6)nc4c3F)c12 [compound 290, 2-amino-4-(6-chloro-4-(2-((S)-2,2-difluorocyclopropane-1-carbonyl)-9,9-difluoro-2,6-diazaspiro [3.6]decan-6-yl)-8-fluoro-2-(((2R,7aS)-2-fluorotetrahydro-1H-pyrrolizin-7a(5H)-yl)methoxy)quinazolin-7-yl)-7-fluorobenzo[b]thiophene-3-carbonitrile] |
| < 5 | < 5 | N#Cc1c(N)sc2c(F)ccc(-c3c(Cl)cc4c(N5CCCCC6(CN(C(=O)COC(F)(F)F)C6)C5)nc(OC[C@@]56CCCN5C[C@H](F)C6)nc4c3F)c12 [compound 268, 2-amino-4-(6-chloro-8-fluoro-2-(((2R,7aS)-2-fluorotetrahydro-1H-pyrrolizin-7a(5H)-yl)methoxy)-4-(2-(2-(trifluoromethoxy)acetyl)-2,6-diazaspiro[3.6]decan-6-yl)quinazolin-7-yl)-7-fluorobenzo[b]thiophene-3-carbonitrile] |
| < 5 | < 5 | N#Cc1c(N)sc2c(F)ccc(-c3c(Cl)cc4c(N5CCCC6(CN(C=O)C6)C5)nc(OC[C@@]56CCCN5C[C@H](F)C6)nc4c3F)c12 [compound 173, 2-amino-4-(6-chloro-8-fluoro-2-(((2R,7aS)-2-fluorotetrahydro-1H-pyrrolizin-7a(5H)-yl)methoxy)-4-(2-formyl-2,6-diazaspiro[3.5]nonan-6-yl)quinazolin-7-yl)-7-fluorobenzo[b]thiophene-3-carbonitrile] |
| < 5 | < 5 | N#Cc1c(N)sc2c(F)ccc(-c3c(Cl)cc4c(N5CCCCC6(CN(C(=O)C7(C(F)F)CC7)C6)C5)nc(OC[C@@]56CCCN5C[C@H](F)C6)nc4c3F)c12 [compound 276, 2-amino-4-(6-chloro-4-(2-(1-(difluoromethyl)cyclopropane-1-carbonyl)-2,6-diazaspiro[3.6]decan-6-yl)-8-fluoro-2-(((2R,7aS)-2-fluorotetrahydro-1H-pyrrolizin-7a(5H)-yl)methoxy)quinazolin-7-yl)-7-fluorobenzo[b]thiophene-3-carbonitrile] |
| < 5 | < 5 | CC1CCCC2(CN(C(=O)C3CC3(F)F)C2)CN1c1nc(OC[C@@]23CCCN2C[C@H](F)C3)nc2c(F)c(-c3ccc(F)c4sc(N)c(C#N)c34)c(Cl)cc12 (stereo partly drawn) [compound 288, 2-amino-4-(6-chloro-4-(2-(2,2-difluorocyclopropane-1-carbonyl)-7-methyl-2,6-diazaspiro[3.6]decan-6-yl)-8-fluoro-2-(((2R,7aS)-2-fluorotetrahydro-1H-pyrrolizin-7a(5H)-yl)methoxy)quinazolin-7-yl)-7-fluorobenzo[b]thiophene-3-carbonitrile] |
| < 5 | < 5 | CC(=O)N1CC2(CCCCN(c3nc(OC[C@@]45CCCN4C[C@H](F)C5)nc4c(F)c(-c5ccc(F)c6sc(N)c(C#N)c56)c(Cl)cc34)C2)C1 [compound 338, 4-(4-(2-acetyl-2,6-diazaspiro [3.6]decan-6-yl)-6-chloro-8-fluoro-2-(((2R,7aS)-2-fluorotetrahydro-1H-pyrrolizin-7a(5H)-yl)methoxy)quinazolin-7-yl)-2-amino-7-fluorobenzo[b]thiophene-3-carbonitrile] |
| < 5 | < 5 | N#Cc1c(N)sc2c(F)ccc(-c3c(Cl)cc4c(N5CCCCC6(CN(C(=O)C(F)(F)F)C6)C5)nc(OC[C@@]56CCCN5C[C@H](F)C6)nc4c3F)c12 [compound 206, 2-amino-4-(6-chloro-8-fluoro-2-(((2R,7aS)-2-fluorotetrahydro-1H-pyrrolizin-7a(5H)-yl)methoxy)-4-(2-(2,2,2-trifluoroacetyl)-2,6-diazaspiro[3.6]decan-6-yl)quinazolin-7-yl)-7-fluorobenzo[b]thiophene-3-carbonitrile] |
| < 5 | < 5 | C[C@H](Oc1nc(N2CCCC3(CN(C(=O)C4CC4(F)F)C3)C2)c2cc(Cl)c(-c3ccc(F)c4sc(N)c(C#N)c34)c(F)c2n1)[C@@H]1CCCN1C (stereo partly drawn) [compound 148, 2-amino-4-(6-chloro-4-(2-(2,2-difluorocyclopropane-1-carbonyl)-2,6-diazaspiro[3.5]nonan-6-yl)-8-fluoro-2-((S)-1-((S)-1-methylpyrrolidin-2-yl)ethoxy)quinazolin-7-yl)-7-fluorobenzo[b]thiophene-3-carbonitrile] |
| < 5 | < 5 | C#Cc1c(F)ccc2cc(O)cc(-c3ccc4c(N5CCCCC6(CN(C(=O)[C@@H]7CC7(F)F)C6)C5)nc(OC[C@@]56CCCN5C[C@H](F)C6)nc4c3F)c12 [compound 260, ((S)-2,2-difluorocyclopropyl) (6-(7-(8-ethynyl-7-fluoro-3-hydroxynaphthalen-1-yl)-8-fluoro-2-(((2R,7aS)-2-fluorotetrahydro-1H-pyrrolizin-7a(5H)-yl)methoxy)quinazolin-4-yl)-2,6-diazaspiro[3.6]decan-2-yl)methanone] |
| < 5 | < 5 | C#Cc1c(F)ccc2cc(O)cc(-c3ncc4c(N5CCCCC6(CN(C(=O)C(F)F)C6)C5)nc(OC[C@@]56CCCN5C[C@H](F)C6)nc4c3F)c12 [compound 344, 1-(6-(7-(8-ethynyl-7-fluoro-3-hydroxynaphthalen-1-yl)-8-fluoro-2-(((2R,7aS)-2-fluorotetrahydro-1H-pyrrolizin-7a(5H)-yl)methoxy)pyrido [4,3-d]pyrimidin-4-yl)-2,6-diazaspiro[3.6]decan-2-yl)-2,2-difluoroethan-1-one] |
| < 5 | < 5 | N#Cc1c(N)sc2c(F)ccc(-c3c(Cl)cc4c(N5CCCCC6(CN(C(=O)CC7CCC7)C6)C5)nc(OC[C@@]56CCCN5C[C@H](F)C6)nc4c3F)c12 [compound 320, 2-amino-4-(6-chloro-4-(2-(2-cyclobutylacetyl)-2,6-diazaspiro[3.6]decan-6-yl)-8-fluoro-2-(((2R,7aS)-2-fluorotetrahydro-1H-pyrrolizin-7a(5H)-yl)methoxy)quinazolin-7-yl)-7-fluorobenzo[b] thiophene-3-carbonitrile] |
| < 5 | < 5 | Cn1cc(C(=O)N2CC3(CCCCN(c4nc(OC[C@@]56CCCN5C[C@H](F)C6)nc5c(F)c(-c6ccc(F)c7sc(N)c(C#N)c67)c(Cl)cc45)C3)C2)c(C(F)F)n1 [compound 220, 2-amino-4-(6-chloro-4-(2-(3-(difluoromethyl)-1-methyl-1H-pyrazole-4-carbonyl)-2,6-diazaspiro[3.6]decan-6-yl)-8-fluoro-2-(((2R,7aS)-2-fluorotetrahydro-1H-pyrrolizin-7a(5H)-yl)methoxy)quinazolin-7-yl)-7-fluorobenzo[b]thiophene-3-carbonitrile] |
| < 5 | < 5 | N#Cc1c(N)sc2c(F)ccc(-c3c(Cl)cc4c(N5CCCCC6(CN(C(=O)CN7CCOCC7)C6)C5)nc(OC[C@@]56CCCN5C[C@H](F)C6)nc4c3F)c12 [compound 335, 2-amino-4-(6-chloro-8-fluoro-2-(((2R,7aS)-2-fluorotetrahydro-1H-pyrrolizin-7a(5H)-yl)methoxy)-4-(2-(2-morpholinoacetyl)-2,6-diazaspiro[3.6]decan-6-yl)quinazolin-7-yl)-7-fluorobenzo[b]thiophene-3-carbonitrile] |
| < 5 | < 5 | N#Cc1c(N)sc2c(F)ccc(-c3c(Cl)cc4c(N5CCCCC6(CN(C(=O)C7CC7C7CC7)C6)C5)nc(OC[C@@]56CCCN5C[C@H](F)C6)nc4c3F)c12 (stereo partly drawn) [compound 261, 4-(4-(2-([1,1′-bi (cyclopropane)]-2-carbonyl)-2,6-diazaspiro[3.6]decan-6-yl)-6-chloro-8-fluoro-2-(((2R,7aS)-2-fluorotetrahydro-1H-pyrrolizin-7a(5H)-yl)methoxy)quinazolin-7-yl)-2-amino-7-fluorobenzo[b] thiophene-3-carbonitrile] |
| < 5 | < 5 | N#Cc1c(N)sc2c(F)ccc(-c3c(Cl)cc4c(N5CCCCC6(CN(C(=O)C7CCC7(F)F)C6)C5)nc(OC[C@@]56CCCN5C[C@H](F)C6)nc4c3F)c12 (stereo partly drawn) [compound 210, 2-amino-4-(6-chloro-4-(2-(2,2-difluorocyclobutane-1-carbonyl)-2,6-diazaspiro[3.6]decan-6-yl)-8-fluoro-2-(((2R,7aS)-2-fluorotetrahydro-1H-pyrrolizin-7a(5H)-yl)methoxy)quinazolin-7-yl)-7-fluorobenzo[b]thiophene-3-carbonitrile] |
| < 5 | < 5 | C[C@H](Oc1nc(N2CCCC3(CN(C(=O)c4ccnn4C)C3)C2)c2cc(Cl)c(-c3ccc(F)c4sc(N)c(C#N)c34)c(F)c2n1)[C@@H]1CCCN1C [compound 127, 2-amino-4-(6-chloro-8-fluoro-4-(2-(1-methyl-1H-pyrazole-5-carbonyl)-2,6-diazaspiro[3.5]nonan-6-yl)-2-((S)-1-((S)-1-methylpyrrolidin-2-yl)ethoxy)quinazolin-7-yl)-7-fluorobenzo[b]thiophene-3-carbonitrile] |
